{
  "source": "patent US12208127B2",
  "about": "“Preparation and use of cannabis nano-formulation” (Apurano Pharmaceuticals GmbH, priority 2020, dated 2025)",
  "origin": "cited, not measured here",
  "key": {"[1]": {"settings": "some pharmacological animal experiments"}, "[2]": {"settings": "i.v. single dose 1 mg"}, "[3]": {"settings": "higher formation after administration"}},
  "note": "Read-outs that look alike come from different tables or passages of the source.",
  "data": [
    {"compound": "CCCCCc1cc(O)c2c(c1)OC(C)(C)[C@@H]1CCC(CO)=C[C@@H]21", "note": "[Example 11-OH-THC, 11-OH-THC]", "values": [
      {"measurement": "psychotropic side effects relative to THC", "setting": "[1]", "result": "three to seven"},
      {"measurement": "time to tachycardia and psychological high", "setting": "[2]", "result": "3-5 minutes"}
    ]},
    {"compound": "CCCCCc1cc(O)c2c(c1)OC(C)(C)[C@@H]1CCC(C)=C[C@@H]21", "note": "[THC, tetrahydrocannabinol]", "values": [
      {"measurement": "average plasma clearance rate", "setting": "naïve THC users", "result": "approximately 36 L/h"},
      {"measurement": "average plasma clearance rate", "setting": "regular users", "result": "~60", "unit": "L/h"}
    ]},
    {"compound": "CCCCCc1cc(O)c2c(c1)OC(C)(C)[C@@H]1CCC(C)=C[C@@H]21", "note": "[dronabinol as capsule, dronabinol]", "values": [
      {"measurement": "formation of 11-OH-THC compared to THC", "setting": "[3]", "result": 3, "unit": "fold"}
    ]}
  ]
}
